Source: PubChem BioAssay (NCI)
“And” between values parts separate entries of the source, which are not always exact repeats. Identical values can stand only once.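 Method: 48-hour compound exposure of cells in 96-well plates, five concentrations, linear interpolation of endpoints. At the GI50, growth is halved. Definition used: TGI = concentration required for complete inhibition of growth.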

System: MDA-MB-468 breast
Assay: DTP human tumour cell line panel, 48 h

| Structure (SMILES) | GI50 | TGI |
| --- | --- | --- |
| CNC(=O)c1cc(Oc2ccc3nc(NC(=O)c4cc(C(F)(F)F)cc(C(F)(F)F)c4)sc3c2)ccn1 | 3180 nM | 14200 nM |
| COc1c(Nc2ncc(Cl)c(N[C@@H]3[C@H]4C=CC(C4)[C@@H]3C(N)=O)n2)ccc2c1CC[C@@H](N1CCOCC1)CC2 | 2200 nM | 8130 nM |
| O=C(NNc1nc2cc(F)ccc2n2cccc12)c1ccncn1 | 293 nM | 1650 nM |
| O=C(Nc1cccnc1)c1cccs1 | 603 nM | > 100000 nM |
| Clc1ccc(N/N=C/c2ccccn2)nc1 | 260 nM | 1510 nM |
| CCNC(=O)Nc1ccc(-c2nc3c(c(N4CCOC[C@@H]4C)n2)CCN(C2COC2)C3)cc1 | 135 nM and 125 nM | 1720 nM and 1380 nM |
| Nc1cccc(-c2nc3sccn3c2-c2ccnc(NCCCNS(=O)(=O)c3ccc(C(F)(F)F)cc3)n2)c1 | 2440 nM | 33800 nM |
| Clc1ccc(-c2nc(-c3c[nH]c4ncccc34)cs2)cc1 | > 100000 nM | > 100000 nM |
| C=CC[Se]C(=O)c1ccccc1OC(C)=O | 1780 nM | 3750 nM |
| O=C(/C=C/c1ccccc1Cl)c1ccc(O)cc1 | 2770 nM | 13000 nM |
| COC(=O)C1=C(C(=O)Nc2cccnc2)C2OC1(C(Cc1ccccc1)Oc1ccccc1)C1OC21 (stereo unspecified) | 1720 nM | 4250 nM |
| O=C(/C=C\c1cccc([N+](=O)[O-])c1)c1ccccc1 | 1650 nM | 9510 nM |
| Cc1oncc1C(=O)Nc1ccc(C(F)(F)F)cc1 | 37100 nM | > 100000 nM |
| C[C@H](Nc1ccc(C#N)n(C)c1=O)c1cc2cc(Cl)ccc2[nH]c1=O | 21600 nM | 84000 nM |
| COc1cccc(N2CCN(c3ncnc4c3[nH]c3ccc(F)cc34)C[C@@H]2C)c1 | 1590 nM | 5310 nM |
| Cc1cc(N2CCOCC2)nc(N(CCNc2ccnc3cc(Cl)ccc23)Cc2ccco2)n1 | 2090 nM | 6410 nM |
| N#Cc1cc(-c2ccccc2)[nH]c1-c1nccc2ccccc12 | 3330 nM | 44900 nM |
| O=C(O[C@H]1CN[C@H](C#Cc2cc3ncnc(Nc4ccc(Cc5ccccc5)cc4)c3s2)C1)N1CCOCC1 | 1270 nM | 6370 nM |
| NC(=O)c1ncn(C2OC(CO)C(O)C2O)n1 (stereo unspecified) | 69700 nM | > 100000 nM |
| COc1cc(C2=Nc3c/c(=C\c4c(O)[nH]c5ccc(Cl)cc45)ccc3=N2)cc(OC)c1OC | 1970 nM | 4410 nM |
| O=C1OCC2=C1C(c1cccc([N+](=O)[O-])c1)c1cc3c(cc1N2CCO)CCC3 (stereo unspecified) | 147 nM | 8880 nM |
| CCOc1ccc(/C=N/Nc2cc(C)nc3ccc(Cl)cc23)cc1 | 1730 nM | 3270 nM |

| Structure (SMILES) | GI50 | TGI |
| --- | --- | --- |
| NCC(=O)Nc1ccc(-n2nc(C(F)(F)F)cc2-c2ccc3c(ccc4ccccc43)c2)cc1 | 1560 nM | 3020 nM |
| CN(C)c1cc2c(Nc3ccc4nc(Cc5ccccc5)[nH]c4c3)ncnc2cn1 | > 9600 nM | > 25000 nM |
| O=S(=O)(c1ccc2c(c1)C(=NO)c1cc(S(=O)(=O)N3CCCCC3)ccc1-2)N1CCCCC1 | 237 nM and 137 nM | 608 nM and 277 nM |
| CN(C)c1cc2c(cc1Sc1nc3c(N)nccc3n1CCNCC(C)(C)C)OCO2 | 268 nM | 888 nM |
| O=C(c1ccc(F)c(F)c1Nc1ccc(I)cc1F)N1CC(O)([C@H]2CCCCN2)C1 | 4520 nM | 10700 nM |
| COc1cccc(C2=NN(C(C)=O)C(c3cc(OC)c(OC)c(OC)c3)C2)c1 (stereo unspecified) | 1010 nM | > 30900 nM |
| O=C1OCC2=C1C(c1ccccc1)c1cc3c(cc1N2CCO)CCC3 (stereo unspecified) | 55.9 nM | 156 nM |
| COc1ccc(S(=O)(=O)Nc2cc(/C=C\c3cc(OC)c(OC)c(OC)c3)cc(OC)c2OC)cc1OC | 269 nM | 1290 nM |
| CCCCCCCCCCCCCCCCCC(=O)[O][Sn]([CH2]CCC)([CH2]CCC)[CH2]CCC | 83.5 nM | 214 nM |
| CCc1ccc(/C(C#N)=C/C=C/c2ccccc2)cc1 | 838 nM | 9870 nM |
| CCCCN(CCCC)c1cc(C(=O)CCCCCN)c2ccccc2n1 | 1430 nM | 3050 nM |
| COC(=O)c1c2c(c[n+]([O-])c1C)C(=O)C(NCc1ccccc1)=CC2=O | 232 nM | 672 nM |
| O=[N+]([O-])c1ccc(Oc2cccnc2)c([N+](=O)[O-])c1 | 3060 nM | 13800 nM |
| Cn1c(=O)c(Sc2ccccc2F)cc2cnc(NC3CCOCC3)nc21 | > 25000 nM | > 25000 nM |
| Clc1cccc(Cn2cc(Cc3cn(Cc4cccc(Cl)c4)c4ccccc34)c3ccccc32)c1 | 17000 nM | 37300 nM |
| C=C1C(=O)O[C@H]2[C@H]1CC/C(COC(=O)NCc1c[nH]c3ccc(OC)cc13)=C\CC[C@@]1(C)O[C@@H]21 | 1320 nM | 4620 nM |
| CC(C)[C@@H]1NC(=O)[C@]2(C)CSC(=N2)c2csc(n2)CNC(=O)C[C@@H](/C=C/CCS)OC1=O | 206 nM | 4430 nM |
| NC(=O)Cc1ccccc1Oc1nccc(-c2c(-c3ccc(F)cc3)ncn2C2CCNCC2)n1 | 8200 nM | > 25000 nM |
| COc1cc(-c2nn(C)nc2-c2cc3ccccc3s2)cc(OC)c1OC | 82.8 nM | > 100000 nM |
| Cc1nc(NC(=O)COc2cccc(/C=C3\COc4ccccc4C3=O)c2)sc1C | 1760 nM | 3840 nM |
| CCS(=O)(=O)c1ccc(OC)c(Nc2ncc(-c3cccc(-c4ccccc4F)c3)o2)c1 | 4950 nM | > 25000 nM |
